Measured values from patent US20230331685A1, “HERBICIDAL COMPOUNDS AND METHODS OF USE THEREOF” (AG Plenus Ltd, priority 2020, published 2023).

Tests used:
Assay type in all cases: in vivo
[1] = system: Digitaria sanguinalis; assay: LTP post-emergence greenhouse test; settings: Dosage 2000 g/ha
[2] = system: Alopecurus myosuroides; assay: LTP post-emergence greenhouse test; settings: Dosage 2000 g/ha
[3] = system: Amaranthus palmeri; assay: LTP post-emergence greenhouse test; settings: Dosage 2000 g/ha
[4] = system: Lolium multiflorum; assay: LTP post-emergence greenhouse test; settings: Dosage 2000 g/ha
[5] = system: Matricaria chamomilla; assay: LTP post-emergence greenhouse test; settings: Dosage 2000 g/ha
[6] = system: Stellaria media; assay: LTP post-emergence greenhouse test; settings: Dosage 2000 g/ha
[7] = system: Setaria viridis; assay: LTP post-emergence greenhouse test; settings: Dosage 2000 g/ha
[8] = system: Abutilon theophrasti; assay: LTP post-emergence greenhouse test; settings: Dosage 2000 g/ha
[9] = system: Phalaris minor; assay: LTP post-emergence greenhouse test; settings: Dosage 2000 g/ha
[10] = system: Lolium perenne; assay: LTP post-emergence greenhouse test; settings: Dosage 2000 g/ha
[11] = system: Echinochloa colon; assay: LTP post-emergence greenhouse test; settings: Dosage 2000 g/ha
[12] = system: Solanum nigrum; assay: LTP post-emergence greenhouse test; settings: Dosage 2000 g/ha
[13] = system: Eragrostis teff; assay: HTPS pre-emergence application on monocot model plant
Method: The plates were placed in a controlled greenhouse in a random order inside a bath which allows flooding irrigation with tap water supplemented with a fertilizer. Applied compounds were dissolved into a final solution of 50% acetone, 49.9% DDW, 0.1% tween-20. A 96 well plate was used as a stock plate for preparing application solutions for 8 repeats. Each row contained different concentrations per chemical. Maximal concentration for application was 1.5 Kg/Ha and dilution factor is 2.5. Chemical application was performed one day after thinning out in a chemical hood. […] applied on first two true leaves in each well using 12 channel pipettes. Data collection: RGB (red, green, blue) data for green area per well was documented using camera. Data is collected at a few time points during the experiment: one day after thinning and before chemical application, two-, six- or nine-days post application. During the last two documentations, visual phenotyping was performed. Data analysis: Given RGB results and visual phenotype scores, a student t-test conducted to compare between treatment and control performance for continuous data (RGB) and Fisher exact test to analyze the non-continuous data (phenotypic scores). Dose-Response curves are generated for each treatment to infer ED50 and max. inhibition parameters, using treatment's log concentration range as the […] and normalized green area. […] Plate imaging performed at 11 and 18 DAA. RGB data for green area per well was documented and used to extract % inhibition. Dose-Response curves were built for each treatment to infer EC50, EC75 and EC90 parameters, using treatment's log concentration range as the independent variable and normalized green area as the dependent variable. Treatments were compared to controls performance given RGB results and using student's t-test (p-val≤0.05). Compounds 104-154 were applied in either or both pre- and post-emergence mode to either or both monocot and dicot model plants, following the methods described above. The compounds were applied as a gradient of concentrations as listed above, from which the ED50 was calculated.

[14] = system: monocot and eudicot weeds species; assay: In-planta LTP weed panel, overall assessment; settings: applied post-emergence; both monocot and dicot species
[15] = system: Amaranthus tuberculatus; assay: LTP post-emergence greenhouse test; settings: Dosage 2000 g/ha
Method: A basic panel of eight weed species (Table 3) sowed in 4×4×7 cm plastic pots containing a garden mix (klasmann). Each specie was sowed in a separate pot. In each pot, 10-15 seeds were sowed according to the specie viability. Timing of application determined at a 1-2 true leaf stage. The plants grew for 30 days in a controlled greenhouse (26±2° C. day, 20±2° C. night). Hood irrigation (tap water+Shefer 5:3:8 8 mM) was given at a 50% water content by weight. Two days before application, the tested plants thinned down to three plants per pot. Compounds were soluble in water (DDW), and commercial herbicide control was soluble in formulation B (Table 4). Before application, 1% (v/v) crop oil and 0.02% (v/v) surfactant (Tergitol™ 15-S-7) were added to the solution. […] Plants were evaluated at 3 time points (4, 8, 12 days after application (DAA)). At each time point, visual phenotyping was recorded using a scale of 0-6 (0: no visible effect, 6: maximum effect). […]
Post-emergence advanced wide panel experiment included 24 weed species (Table 5). […] Visual phenotyping was recorded at 4, 11, 17 and 20 DAA using a scale of 0-6 (0: no visible effect, 6: maximum effect). […] Statistical analysis for visual phenotyping determined by a median value of ≥3.5 and Fisher test (pval≤0.05). Statistical analysis for dry weight determined by % inhibition ≥50 and T test (pval≤0.05), as well as Wilcox test (pval≤0.05).

[16] = system: Poa annua; assay: LTP post-emergence greenhouse test; settings: Dosage 2000 g/ha
[17] = system: Arabidopsis thaliana; assay: HTPS post-emergence application on miniature dicot model plant; settings: Arabidopsis thaliana, post-emergence, green area (RGB), read-out: Max Inhibition (%)
Method: The plates were placed in a controlled greenhouse in a random order inside a bath which allows flooding irrigation with tap water supplemented with a fertilizer. Applied compounds were dissolved into a final solution of 50% acetone, 49.9% DDW, 0.1% tween-20. A 96 well plate was used as a stock plate for preparing application solutions for 8 repeats. Each row contained different concentrations per chemical. Maximal concentration for application was 1.5 Kg/Ha and dilution factor is 2.5. Chemical application was performed one day after thinning out in a chemical hood. […] applied on first two true leaves in each well using 12 channel pipettes. Data collection: RGB (red, green, blue) data for green area per well was documented using camera. Data is collected at a few time points during the experiment: one day after thinning and before chemical application, two-, six- or nine-days post application. During the last two documentations, visual phenotyping was performed. Data analysis: Given RGB results and visual phenotype scores, a student t-test conducted to compare between treatment and control performance for continuous data (RGB) and Fisher exact test to analyze the non-continuous data (phenotypic scores). Dose-Response curves are generated for each treatment to infer ED50 and max. inhibition parameters, using treatment's log concentration range as the […] variable and normalized green area. Plate imaging performed at 11 and 18 DAA. RGB data for green area per well was documented and used to extract % inhibition. Dose-Response curves were built for each treatment to infer EC50, EC75 and EC90 parameters, using treatment's log concentration range as the independent variable and normalized green area as the dependent variable. Treatments were compared to controls performance given RGB results and using student's t-test (p-val≤0.05). Compounds 104-154 were applied in either or both pre- and post-emergence mode to either or both monocot and dicot model plants, following the methods described above. The compounds were applied as a gradient of concentrations as listed above, from which the ED50 was calculated.

[18] = system: Ambrosia artemisiifolia; assay: LTP post-emergence greenhouse test; settings: Dosage 2000 g/ha
[19] = system: Conyza canadensis; assay: LTP post-emergence greenhouse test; settings: Dosage 2000 g/ha
[20] = system: Chenopodium album; assay: LTP post-emergence greenhouse test; settings: Dosage 2000 g/ha
[21] = system: Galium aparine; assay: LTP post-emergence greenhouse test; settings: Dosage 2000 g/ha
[22] = system: Echinochloa crus-galli; assay: LTP post-emergence greenhouse test; settings: Dosage 2000 g/ha

For NC1CCCC(CCCC(=O)O)C1 (centres unmarked) [Compound 145], the “Herbicidal activity (In-planta), LTP-Post emergence, Digitaria sanguinalis” value [1] was 60-80, the “Herbicidal activity (In-planta), LTP-Post emergence, Alopecurus myosuroides” value [2] was 60-80 and the “Herbicidal activity (In-planta), LTP-Post emergence, Amaranthus palmeri” value [3] was 20-40. The “Herbicidal activity (In-planta), LTP-Post emergence, Lolium multiflorum” value [4] was 20-40, the “Herbicidal activity (In-planta), LTP-Post emergence, Matricaria chamomilla” value [5] was 0 and the “Herbicidal activity (In-planta), LTP-Post emergence, Stellaria media” value [6] was 20-40. The “Herbicidal activity (In-planta), LTP-Post emergence, Setaria viridis” value [7] was 60, the “Herbicidal activity (In-planta), LTP-Post emergence, Abutilon theophrasti” value [8] was 20-40 and the “Herbicidal activity (In-planta), LTP-Post emergence, Phalaris minor” value [9] was 0. The “Herbicidal activity (In-planta), LTP-Post emergence, Lolium perenne” value [10] was 40-60, the “Herbicidal activity (In-planta), LTP-Post emergence, Echinochloa colon” value [11] was 20-40 and the “Herbicidal activity (In-planta), LTP-Post emergence, Solanum nigrum” value [12] was 40-60. For the same compound, the “ED50 (g/ha)” value ([13]; dose-response of normalized green area) was 16.8 g/ha, the “Max Inhibition (%)” value ([13]; green area (RGB)) was 100% and the “activity (in words)” value [14] was “good to moderate activity”. For the same compound, the “Herbicidal activity (In-planta), LTP-Post emergence, Amaranthus tuberculatus” value [15] was 40-60, the “Herbicidal activity (In-planta), LTP-Post emergence, Poa annua” value [16] was 20-40 and the Emax [17] was 100%. The “Herbicidal activity (In-planta), LTP-Post emergence, Ambrosia artemisiifolia” value [18] was 20-40, the “Herbicidal activity (In-planta), LTP-Post emergence, Conyza canadensis” value [19] was 40-60 and the “Herbicidal activity (In-planta), LTP-Post emergence, Chenopodium album” value [20] was 40-60. For the same compound, the “Herbicidal activity (In-planta), LTP-Post emergence, Galium aparine” value [21] was 40-60 and the “Herbicidal activity (In-planta), LTP-Post emergence, Echinochloa crus-galli” value [22] was 60-80.
